Experimental data from US20090181986A1, “SUBSTITUTED HETEROCYCLIC COMPOUNDS” (priority 2007, published 2009).
Where two headings read alike, the source gives them in different places.

Legend:
[1] = target: T1, human cardiac L-type calcium channels (hCav1.2, coexpressed with the beta 2 subunit) (Homo sapiens, UniProt Q13936); test: L-type calcium channel patch clamp screening assay (ICaL, HEK293); format: cell-based; conditions: hCav1.2 in HEK293, percentage of current inhibited at steady state; for ICaL Patch Clamp Assay 1 μM % blk: 1 μM test compound; for ICaL Patch Clamp Assay 10 μM % blk: 10 μM test compound
T1 construct: expressed in transfected cells
Procedure: Compounds are screened to test for block of human cardiac L-type calcium channels (hCav1.2, encoded by the human CACNA1C gene and coexpressed with the beta 2 subunit, encoded by the human CACNB2 gene) expressed in an HEK293 cell line. Stable transfectants were selected using antibiotic resistance genes incorporated into the expression plasmids and selection pressure is maintained with selection antibiotics added to the culture medium. Cells are cultured using standard tissue culture methods for HEK293 cells.
Cells are harvested for addition to a PatchXpress automated patch clamp system. The external solution contains: 137 mM NaCl; 4 mM KCl; 1.8 mM CaCl2; 1 mM MgCl2; […]; 10 mM Glucose (pH adjusted to 7.4 with NaOH). The internal solution contains: 130 mM Cs Aspartate; 5 mM MgCl2; 5 mM EGTA; 4 mM ATP; 0.1 mM GTP; 10 mM HEPES (pH adjusted to 7.2 with N-methyl-D-glucamine).
Onset of block and steady state block of hCav1.2 channels are monitored using a stimulus voltage pattern consisting of a depolarizing test pulse (duration, 200 ms; amplitude, 10 mV) at 10s intervals from a −80 mV holding potential (FIG. 5). Test compound concentrations (1 μM and 10 μM) are applied cumulatively in ascending order without washout between applications. Peak current is measured during the step to 10 mV. A saturating concentration of nifedipine (10 μM) is added at the end of each experiment to completely block hCav1.2 current and verify sensitivity to channel blockade. Leakage current is measured after nifedipine addition and digitally subtracted from the total membrane current record. Each compound is applied to naive cells and each concentration is applied four times for a total exposure duration of five (5) minutes per concentration.
Test compound stock solutions are prepared in dimethyl sulfoxide (DMSO) and stored frozen. Test compound concentrations are prepared fresh daily by diluting stock solutions into the external HEPES-buffered physiological saline solution described above. […] Each test compound formulation is sonicated (Model 2510/5510, Branson Ultrasonics, Danbury, Conn.), at ambient room temperature for at least 20 minutes to facilitate dissolution. In preparation for the recording session, a glass-lined 96-well compound plate is loaded with the appropriate amounts of test and control solutions, and placed in the plate well of PatchXpress® (Model 7000A, MDS Analytical Technologies, Sunnyvale, Calif.).
Data acquisition and analyses are performed using conventional software. Steady state is defined by the limiting constant rate of change with time (linear time dependence). The steady state before and after test compound application is used to calculate the percentage of current inhibited at each concentration.

hERG potassium channel = hERG potassium channel (Homo sapiens, UniProt Q12809); test: hERG screening assay (PatchXpress patch clamp, CHO cells)
Sequence of hERG potassium channel (Q12809 whole entry): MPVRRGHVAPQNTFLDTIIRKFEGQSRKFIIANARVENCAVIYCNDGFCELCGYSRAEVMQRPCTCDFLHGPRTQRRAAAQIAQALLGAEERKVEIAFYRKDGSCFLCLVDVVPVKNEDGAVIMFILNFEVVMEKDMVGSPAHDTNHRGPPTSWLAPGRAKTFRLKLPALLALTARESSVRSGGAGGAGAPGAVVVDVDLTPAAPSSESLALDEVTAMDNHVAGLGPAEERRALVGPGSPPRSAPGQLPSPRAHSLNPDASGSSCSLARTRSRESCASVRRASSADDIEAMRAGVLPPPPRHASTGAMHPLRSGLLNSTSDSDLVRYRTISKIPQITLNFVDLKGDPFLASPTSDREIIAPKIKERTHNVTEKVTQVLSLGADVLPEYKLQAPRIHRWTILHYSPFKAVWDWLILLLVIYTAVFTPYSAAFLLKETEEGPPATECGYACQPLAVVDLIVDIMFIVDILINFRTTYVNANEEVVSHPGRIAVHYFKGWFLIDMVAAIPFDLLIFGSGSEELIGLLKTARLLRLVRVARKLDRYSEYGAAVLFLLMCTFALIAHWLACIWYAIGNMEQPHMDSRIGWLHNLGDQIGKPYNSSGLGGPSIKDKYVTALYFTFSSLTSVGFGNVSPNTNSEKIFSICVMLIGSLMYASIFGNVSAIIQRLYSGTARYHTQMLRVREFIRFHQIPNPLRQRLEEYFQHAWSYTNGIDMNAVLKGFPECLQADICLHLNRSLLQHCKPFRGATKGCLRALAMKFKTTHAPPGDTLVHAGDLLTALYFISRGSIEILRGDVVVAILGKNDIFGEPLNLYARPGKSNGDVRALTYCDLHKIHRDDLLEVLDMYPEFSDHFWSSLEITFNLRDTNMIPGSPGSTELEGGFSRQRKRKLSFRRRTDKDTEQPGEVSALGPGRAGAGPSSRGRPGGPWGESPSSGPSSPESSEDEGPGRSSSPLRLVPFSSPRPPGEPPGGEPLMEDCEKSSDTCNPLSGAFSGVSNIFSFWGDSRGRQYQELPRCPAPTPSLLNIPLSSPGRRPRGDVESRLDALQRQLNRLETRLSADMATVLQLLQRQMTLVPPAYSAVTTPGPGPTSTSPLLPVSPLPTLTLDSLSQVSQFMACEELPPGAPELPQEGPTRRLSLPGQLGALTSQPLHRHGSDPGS

[2] = target: T2, wild-type human cardiac sodium channel, hNav1.5 (Homo sapiens, UniProt Q14524); test: Late INa screening assay (PatchXpress whole cell patch clamp, late current generated with Tefluthrin or ATX II); format: cell-based; conditions: test compound at 10 μM
T2 sequence (Q14524 whole entry): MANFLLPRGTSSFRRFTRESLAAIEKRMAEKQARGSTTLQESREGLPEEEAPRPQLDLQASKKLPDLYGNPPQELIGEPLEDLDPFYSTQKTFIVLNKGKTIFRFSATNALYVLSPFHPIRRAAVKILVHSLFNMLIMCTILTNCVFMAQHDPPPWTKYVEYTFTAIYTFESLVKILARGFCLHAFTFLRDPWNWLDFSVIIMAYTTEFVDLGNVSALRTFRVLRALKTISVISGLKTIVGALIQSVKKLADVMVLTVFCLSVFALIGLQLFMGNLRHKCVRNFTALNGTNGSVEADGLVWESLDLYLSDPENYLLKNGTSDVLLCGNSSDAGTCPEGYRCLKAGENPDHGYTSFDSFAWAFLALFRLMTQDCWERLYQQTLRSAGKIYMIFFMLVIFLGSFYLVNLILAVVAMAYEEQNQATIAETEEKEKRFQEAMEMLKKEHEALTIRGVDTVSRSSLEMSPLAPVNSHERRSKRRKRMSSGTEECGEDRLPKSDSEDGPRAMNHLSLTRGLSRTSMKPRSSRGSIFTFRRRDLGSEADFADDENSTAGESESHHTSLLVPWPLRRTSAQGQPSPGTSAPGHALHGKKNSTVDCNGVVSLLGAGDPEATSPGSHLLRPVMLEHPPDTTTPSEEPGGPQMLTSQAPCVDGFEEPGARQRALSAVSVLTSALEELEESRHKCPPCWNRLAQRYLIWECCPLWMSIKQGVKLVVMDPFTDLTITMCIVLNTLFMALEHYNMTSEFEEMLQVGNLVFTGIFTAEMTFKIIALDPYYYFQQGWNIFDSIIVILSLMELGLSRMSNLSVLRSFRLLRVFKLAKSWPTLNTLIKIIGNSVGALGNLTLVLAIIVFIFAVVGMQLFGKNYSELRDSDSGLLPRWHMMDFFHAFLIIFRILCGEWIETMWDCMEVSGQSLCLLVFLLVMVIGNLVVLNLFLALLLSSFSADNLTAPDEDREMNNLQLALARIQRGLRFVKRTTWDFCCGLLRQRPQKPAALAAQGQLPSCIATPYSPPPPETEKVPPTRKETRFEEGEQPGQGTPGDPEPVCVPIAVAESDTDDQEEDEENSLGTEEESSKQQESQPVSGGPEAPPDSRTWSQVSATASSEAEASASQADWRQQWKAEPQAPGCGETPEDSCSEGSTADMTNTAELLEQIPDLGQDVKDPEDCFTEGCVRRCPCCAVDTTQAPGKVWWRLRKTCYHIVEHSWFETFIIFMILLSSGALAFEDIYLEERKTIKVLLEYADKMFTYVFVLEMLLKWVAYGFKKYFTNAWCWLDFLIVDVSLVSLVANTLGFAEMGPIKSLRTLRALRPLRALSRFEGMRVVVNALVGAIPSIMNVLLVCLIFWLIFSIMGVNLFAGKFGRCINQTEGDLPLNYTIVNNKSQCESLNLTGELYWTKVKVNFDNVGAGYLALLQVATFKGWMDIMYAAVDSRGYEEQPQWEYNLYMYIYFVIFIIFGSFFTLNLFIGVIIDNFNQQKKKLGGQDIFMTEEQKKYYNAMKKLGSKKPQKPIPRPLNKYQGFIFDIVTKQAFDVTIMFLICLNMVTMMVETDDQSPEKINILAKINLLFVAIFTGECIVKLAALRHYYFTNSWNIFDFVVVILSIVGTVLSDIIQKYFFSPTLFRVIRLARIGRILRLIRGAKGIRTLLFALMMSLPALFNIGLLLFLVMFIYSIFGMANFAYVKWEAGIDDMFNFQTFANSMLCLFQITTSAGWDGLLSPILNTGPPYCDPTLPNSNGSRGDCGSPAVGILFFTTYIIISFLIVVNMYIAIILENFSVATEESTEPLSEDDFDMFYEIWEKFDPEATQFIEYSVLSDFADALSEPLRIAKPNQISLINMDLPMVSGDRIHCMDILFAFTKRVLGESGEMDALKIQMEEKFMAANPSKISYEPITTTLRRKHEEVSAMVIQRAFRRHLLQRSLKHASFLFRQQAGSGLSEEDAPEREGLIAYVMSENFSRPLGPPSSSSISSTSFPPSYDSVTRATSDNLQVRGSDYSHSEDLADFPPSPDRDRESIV

[3] = target: T2, wild-type human cardiac sodium channel, hNav1.5; test: Peak INa screening assay (tonic block and use-dependent block); format: cell-based; conditions: test compound at 10 μM
Procedure: The late sodium current (Late INa) and peak sodium current (Peak INa) assays are performed on an automated electrophysiology platform, PatchXpress 7000A (MDS Analytical Technologies, Sunnyvale, Calif.), which uses the whole cell patch clump technique to measure currents through the cell membrane of up to 16 cells at a time. The assay uses an HEK293 (human embryonic kidney) cell line heterologously expressing the wild-type human cardiac sodium channel, hNav1.5, purchased from Millipore (Billerica, Mass.). No beta subunits were coexpressed with the Na channel alpha subunit. […] Experiments are carried out at 24-27° C.
For both the Late INa and Peak INa assays, series resistance compensation is set to 50% and whole-cell compensation is performed automatically. […] Currents through open sodium channels are automatically recorded and stored in the DataXpress2 database (MDS Analytical Technologies, Sunnyvale, Calif.). Analysis is performed using DataXpress2 analysis software and data are compiled in Excel.
Compound stocks are routinely made in glass vials to 10 mM in dimethyl sulfoxide (DMSO). In some cases, when compounds are not soluble in DMSO, they are made in 100% ethanol. Stocks are sonicated as necessary. The extracellular solution for screening Late INa is composed of: 140 mM NaCl, 4 mM KCl, 1.8 mM CaCl2, 0.75 mM MgCl2, and 5 mM HEPES with pH adjusted to 7.4 using NaOH. The extracellular solution for screening Peak INa is composed of: 20 mM NaCl, 120 mM N-methyl-D glucamine, 4 mM KCl, 1.8 mM CaCl2, 0.75 mM MgCl2, and 5 mM HEPES with pH adjusted to 7.4 using HCl. The intracellular solution used to perfuse the inside of the cells for both the Late INa and Peak INa assays contains: 120 mM CsF, […], 5 mM EGTA, 5 mM HEPES and pH adjusted to 7.4 with CsOH. Compounds are diluted in extracellular solution to […] in glass vials and then transferred to glass well plates before robotic addition to the cells. The ONa extracellular solution used at the end of each experiment for the Late INa and Peak INa assays to measure baseline current contains: 140 mM N-methyl-D-glucamine; 4 mM KCl; 1.8 mM CaCl2; 0.75 mM MgCl2; 5 mM HEPES and pH was adjusted to 7.4 with HCl.
Compounds were also evaluated for their effect in several other assays, including their effect on Peak INa. In some cases, the effect on Peak INa was measured using data from the Late INa assay. […] Since the peak INa can be very large, introducing artifacts in the recording, the concentration of Na^+ in the bath is reduced to 20 mM and a nonpermeant cation is added to compensate for the Na^+ that was omitted from the standard extracellular solution (see above). The peak INa assay uses a holding potential of −100 mV and a 20 ms test pulse to 0 mV to activate the channel. As in the Late INa assay, stepping the voltage to 0 mV causes a rapid increase in negative Na current through hNav1.5 that inactivates within a few ms. No late INa activator is added for the peak assay.
For the separate peak INa assay, both tonic (TB) block and use-dependent (UDB) block of peak inward sodium current by 10 μM compound are determined. TB is block of the channel in the resting state, before the channel opens. TB is simulated in this assay by stimulating the channel to open at a low frequency (0.1 Hz). This is done in order to measure the control current amplitude and monitor current rundown, enabling correction for rundown in the calculation of percent block for TB.

L-type calcium channel = L-type calcium channel activity well-plate assay (IMR-32 cells, Ca-4 dye, FlexStation); format: cell-based, human
Outline: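 IMR-32 human neuroblastoma cells seeded overnight at 200,000 cells/well, loaded 1 h at 37° with Ca-4 dye in HBSS/20 mM HEPES pH 7.4 with 2 mM probenecid.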

| Structure (SMILES) | ICaL Patch Clamp Assay 1 μM % blk [1] | ICaL Patch Clamp Assay 10 μM % blk [1] | hERG Patch Clamp hERG % blk (1 μM test cmpd) (hERG potassium channel) | hERG Patch Clamp hERG % blk (10 μM test cmpd) (hERG potassium channel) | also measured |
| --- | --- | --- | --- | --- | --- |
| CCOC(=O)C1=C(C)NC(C)=C(C(=O)OCC)C1c1ccc(OC)cc1C#N [PT-431, diethyl 4-(2-cyano-4-methoxyphenyl)-2,6-dimethyl-1,4-dihydropyridine-3,5-dicarboxylate] | 3.7% | 2.4% |  |  |  |
| CCOC(=O)C1=C(C)NC(C)=C(C(=O)OCC)C1c1ccccc1Br [PT-430, diethyl 4-(2-bromophenyl)-2,6-dimethyl-1,4-dihydropyridine-3,5-dicarboxylate] | 91.8% | 98.6% | 10% | 21.5% |  |
| CC1=C(C(=O)O[C@@H](C)c2ccccc2)C(c2sc3ccccc3c2C)c2cn[nH]c2N1 (stereo partly shown) [PT-523] |  |  |  |  | Late INa % blk [2]: 66.7%; Tonic Peak INa % blk ([3]; tonic block): 20.8%; UDB Peak INa % blk ([3]; use-dependent block): 16.2% |
| CC1=C(C(=O)OCc2ccccc2)C(c2ccccc2-c2ccc(NS(C)(=O)=O)cc2)c2cn[nH]c2N1 (stereo not shown) [PT-366, benzyl 6-methyl-4-(4′-(methylsulfonamido)biphenyl-2-yl)-4,7-dihydro-1H-pyrazolo[3,4-b]pyridine-5-carboxylate] |  |  | 28% | 92% | inhibition at 10 µM ([3]; tonic block, read-out: Tonic Peak INa % blk): 20%; inhibition at 10 µM ([3]; use-dependent block, read-out: UDB Peak INa % blk): 4.6% |
| CCOC(=O)C1=C(C)NC(C)=C(C(=O)OCC)C1c1ccc(OC)cc1F [PT-432, diethyl 4-(2-fluoro-4-methoxyphenyl)-2,6-dimethyl-1,4-dihydropyridine-3,5-dicarboxylate] | 3.7% | 35.3% |  |  |  |
| CCOC(=O)C1=C(C)NC(C)=C(C(=O)OCC)C1c1ccc(N(C)C)cc1[N+](=O)[O-] [PT-437, diethyl 4-(4-(dimethylamino)-2-nitrophenyl)-2,6-dimethyl-1,4-dihydropyridine-3,5-dicarboxylate] | −0.1% | 13.2% |  |  |  |
| CC1=C(C(=O)O[C@H](C)c2ccccc2)C(c2cccc3ccccc23)n2nnnc2N1 (stereo partly shown) [PT-047] |  |  |  |  | Late INa % blk [2]: 67.4%; Tonic Peak INa % blk ([3]; tonic block): 36.3%; CaL Plate Assay % blk (1 μM test cmpd) (L-type calcium channel; 1 μM test cmpd): 24%; CaL Plate Assay % blk (10 μM test cmpd) (L-type calcium channel; 10 μM test cmpd): 42% |
| CC1=C(C(=O)OCc2ccccc2)C(c2ccc(N(C)C)cc2[N+](=O)[O-])n2nnnc2N1 (stereo not shown) [PT-409, benzyl 7-(4-(dimethylamino)-2-nitrophenyl)-5-methyl-4,7-dihydrotetrazolo[1,5-a]pyrimidine-6-carboxylate] | 2.7% | 19.9% | 27% | 78.5% |  |
